In patent publication US7744867B2, “PTPase inhibitors and method of using same” (The Cleveland Clinic Foundation, priority 2001, dated 2010):

Tests used:
[1] = tested on: acute promyelocytic leukemia (APL); settings: in vivo; cited from earlier work
[2] = tested on: NB4 cells; test: Differentiation, proliferation and cell cycle of AML cell line; format: cell-based, human; settings: 3 days; sodium stibogluconate 250 μg/ml, ATRA 1 μM
Method: Cell lines, cell culture, and cell proliferation assay. The NB4 cell line was a gift from Dr. Dan Lindner of CCF. HL60 and U937 cell lines were purchased from ATCC. These human AML cell lines were maintained in RPMI 1640 medium supplemented with 10% fetal calf serum (FCS). For cell proliferation assays, cells were cultured at 37° C. in 10% FCS medium containing various amounts of sodium stibogluconate for 6 days. The cell numbers in the cultures were determined by an MTT assay as described previously.
Differentiation of AML cell lines was assessed by their ability to produce superoxide as measured by reduction of NBT to formazan and by analysis of expression of CD11b surface marker by flow cytometry. For NBT reduction, each cell suspension was mixed with an equal volume of solution containing 1 mg/ml of NBT (Sigma) and 2.5 μg/ml of TPA for 30 minutes at 37° C. After incubation, cells containing the purple formazan deposits and cells devoid of NBT-reducing activity (white cells) in each sample were determined by counting 200 cells under microscope. We expressed the data as percentage of the following ratio: purple cells/purple+white cells. For analysis of cell surface antigens, cells were exposed to phycoerythrin (PE)−conjugated murine anti-human CD11b (DAKO corp, Carpinteria, Calif.). Analysis of fluorescence was performed on a FACScan flow cytometer (Beckton Dickinson, Mountain View, Calif.). The cell cycle was analyzed by flow cytometry after 3 days of culture of NB4 cells in the absence or presence of sodium stibogluconate (250 μg/ml) or ATRA (1 μM). Briefly, the cells were fixed in cold ethanol and incubated for 30 minutes at 4° C. in the dark with a solution of […] propidium iodide, 1 mg/ml RNase and 0.1% NP-40. Analysis was performed immediately after staining using the CELLFIT program (Becton Dickinson, Mountain View, Calif.).

[3] = target: T1, PTP1B (GST fusion protein) (Homo sapiens, UniProt P18031); test: In vitro PTPase assay, dephosphorylation of a synthetic phosphotyrosine peptide; format: biochemical
T1 construct: purchased Upstate Biotechnology Inc. (UBI, Lake Placid, N.Y.)
T1 sequence (P18031 whole entry, species assumed, the tested form may be a part): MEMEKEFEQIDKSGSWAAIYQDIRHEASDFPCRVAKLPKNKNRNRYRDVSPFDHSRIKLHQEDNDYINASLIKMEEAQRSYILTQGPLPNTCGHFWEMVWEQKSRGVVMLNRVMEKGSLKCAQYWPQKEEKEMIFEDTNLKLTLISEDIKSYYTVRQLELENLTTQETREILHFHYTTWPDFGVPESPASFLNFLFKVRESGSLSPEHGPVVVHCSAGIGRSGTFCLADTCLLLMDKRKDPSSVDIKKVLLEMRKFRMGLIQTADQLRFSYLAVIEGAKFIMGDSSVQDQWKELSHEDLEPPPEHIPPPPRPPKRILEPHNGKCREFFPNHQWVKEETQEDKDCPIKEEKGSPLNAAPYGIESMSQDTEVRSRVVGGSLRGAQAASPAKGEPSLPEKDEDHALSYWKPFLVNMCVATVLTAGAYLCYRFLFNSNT
Method: (§1) In vitro PTPase activities were measured using the commercial protein tyrosine phosphatase assay kit (UBI) following established procedure. […] 100 μl of Malachite Green solution was added and incubated for 5 minutes, and the absorbance at 660 nm was measured after 5 minutes.

[4] = tested on: Jak2 and Stat5 tyrosine phosphorylation; test: IL-3-induced Jak2/Stat5 tyrosine phosphorylation in Baf3 cells; format: cell-based, murine
Method: For induction of cellular protein phosphorylation by sodium stibogluconate or pervanadate, Baf3 cells were incubated in 0.1% FCS RPMI 1640 medium at 37° C. for 16 hours. The cells were then washed twice in RPMI 1640 medium and incubated with sodium stibogluconate or pervanandate (0.1 mM) for various times prior to termination by lysing cells in cold lysis buffer (50 mM Tris, pH 7.4; 150 mM NaCl; 0.2 mM Na3VO4; 20 mm NaF; 1% NP40; 2 mM PMSF; 20 μg/ml of aprotinin and 1 mM of sodium molybdic acid). To determine the effect of sodium stibogluconate or potassium antimonyl tartrate on IL-3-induced Jak/Stat phosphorylation, Baf3 cells were deprived of the growth factor for 16 hours in 0.1% FCS RPMI 1640 medium and then incubated with or without sodium stibogluconate or potassium antimonyl tartrate for 10 minutes. IL-3 was next added to the cell suspension and incubated for various times. The cells were then harvested and lysed in cold lysis buffer at 4° C. for 45 minutes. Total cell lysates (TCL) were separated in SDS-PAGE gels, blotted onto nitrocellulose membrane (Schleicher & Schuell), probed with specific antibodies and detected using an enhanced chemiluminescence kit (ECL, Amersham).
A functional role of SHP-1 in dephosphorylating the Jak family kinases during cytokine signaling has been documented. To determine whether sodium stibogluconate inhibits SHP-1 in vivo, the effect of the drug on IL-3-induced Jak2 tyrosine phosphorylation in Baf3 cells was examined. Baf3 cells deprived of IL-3 were incubated with or without the drug for 10 minutes and then stimulated with IL-3 for various times. IL-3 induced tyrosine phosphorylation of Jak2 and Stat5 in Baf3 cells in the presence or absence of the drug. However, the phosphotyrosine levels of Jak2 and Stat5 in the presence of the drug were about twice of those in cells without drug treatment as determined by densitometry analysis.

[5] = target: T2, GST/SHP-1 fusion protein (Mus musculus, UniProt P29351); test: In vitro PTPase assay, dephosphorylation of a synthetic phosphotyrosine peptide; format: biochemical
T2 construct: made in house
T2 sequence (P29351 whole entry, the tested form may be a part): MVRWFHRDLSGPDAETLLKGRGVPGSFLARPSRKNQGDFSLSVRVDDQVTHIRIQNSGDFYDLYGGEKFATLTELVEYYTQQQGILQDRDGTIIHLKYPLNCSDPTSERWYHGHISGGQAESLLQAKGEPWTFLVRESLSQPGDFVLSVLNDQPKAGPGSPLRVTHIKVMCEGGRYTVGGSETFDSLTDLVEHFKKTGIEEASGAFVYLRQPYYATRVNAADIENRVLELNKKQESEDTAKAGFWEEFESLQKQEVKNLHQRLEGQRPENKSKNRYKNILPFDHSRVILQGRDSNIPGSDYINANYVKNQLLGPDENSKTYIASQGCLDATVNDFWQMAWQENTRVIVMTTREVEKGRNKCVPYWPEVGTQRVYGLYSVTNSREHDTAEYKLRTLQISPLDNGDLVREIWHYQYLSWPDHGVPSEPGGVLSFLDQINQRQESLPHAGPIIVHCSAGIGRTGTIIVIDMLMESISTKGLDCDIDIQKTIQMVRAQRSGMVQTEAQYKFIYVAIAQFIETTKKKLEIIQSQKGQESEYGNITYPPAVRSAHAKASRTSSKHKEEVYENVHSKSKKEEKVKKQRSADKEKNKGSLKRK
Method: In vitro PTPase activities were measured using the commercial protein tyrosine phosphatase assay kit (UBI) following established procedure. This assay measures the in vitro dephosphorylation of a synthetic phosphotyrosine peptide (R-R-L-I-E-D-A-E-pY-A-A-R-G). Briefly, 0.01 μg of GST/PTPase fusion protein was incubated in 50 μl of Tris buffer (10 mM Tris, […]) at 22° C. for 10 minutes, followed by addition of 0.2 mM of the phosphotyrosine peptide and incubation at 22° C. for 18 hours. 100 μl of Malachite Green solution was added and incubated for 5 minutes, and the absorbance at 660 nm was measured after 5 minutes.

[6] = tested on: Baf3 cells; test: IL-3-induced proliferation of Baf3 cells; format: cell-based, murine
Method: The murine hematopoietic cell line Baf3 was maintained in RPMI 1640 medium supplemented with 10% fetal calf serum (FCS) and murine IL-3 (20 units/ml) as described previously. Human myeloid cell line TF-1 was maintained in RPMI 1640 supplemented with 10% FCS and 40 ng/ml of recombinant human GM-CSF as described previously. For cell proliferation assays, cells were washed in 10% FCS medium twice, resuspended in 10% FCS medium, incubated at 37° C. for 16 hours and then cultured at 37° C. in 10% FCS medium containing various amounts of cytokines, sodium stibogluconate, or PSbT for 3-6 days as indicated. The cell numbers in proliferation assays were determined by an MTT assay or by microscopic cell counting as indicated.

[7] = target: T3, intracellular Flag-PRL-1 (Homo sapiens, UniProt Q93096); test: PTPase activity of anti-Flag immunocomplexes from NIH3T3 transfectants; format: cell-based; settings: treated 5 min
T3 construct: expressed in transfected cells; host or cells: NIH3T3
T3 sequence (Q93096 whole entry): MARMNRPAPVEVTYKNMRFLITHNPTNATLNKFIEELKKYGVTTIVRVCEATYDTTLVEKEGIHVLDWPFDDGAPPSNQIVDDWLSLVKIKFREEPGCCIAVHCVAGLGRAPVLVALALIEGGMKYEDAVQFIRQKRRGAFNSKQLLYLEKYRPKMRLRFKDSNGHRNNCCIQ
Method: (§2) An expression construct of Flag-tagged PRL-1 or control vector was transfected into NIH3T3 cells which were then treated without or with sodium stibogluconate and used for immunoprecipitation assays with a monoclonal anti-Flag antibody. The immunocomplexes were analyzed by SDS-PAGE/Western blotting and PTPase assays. A Flag-tagged protein with a molecular weight approximately 22 kDa as expected for Flag-PRL-1 was detected in the immunocomplexes from untreated or sodium stibogluconate -treated Flag-PRL-1 transfectants but not in those from the control cells (FIG. 6A).
(§3) Glucatime inactivates intracellular PRL phosphatases. NIH3T3 stable transfectants of Flag-tagged PRL-1 (A), PRL-2 (B) and PRL-3 (C) were untreated or treated with glucatime for 5 minutes and then washed to remove cell free drug. The Flag-tagged PRLs were immunoprecipitated from the cells using a monoclonal anti-Flag antibody. The amounts of Flag-tagged PRLs in the immunocomplexes were quantified by SDS-PAGE/Western blotting with the anti-Flag antibody (the top panel). Activities of the immunocomplexes in dephosphorylating a synthetic phosphotyrosine peptide were determined by in vitro PTPase assays (the low panel).

[8] = target: T4, intracellular Flag-PRL-3 (Homo sapiens, UniProt O75365); test: as above; format: cell-based; settings: treated 5 min
T4 construct: expressed in transfected cells; host or cells: NIH3T3
T4 sequence (O75365 whole entry): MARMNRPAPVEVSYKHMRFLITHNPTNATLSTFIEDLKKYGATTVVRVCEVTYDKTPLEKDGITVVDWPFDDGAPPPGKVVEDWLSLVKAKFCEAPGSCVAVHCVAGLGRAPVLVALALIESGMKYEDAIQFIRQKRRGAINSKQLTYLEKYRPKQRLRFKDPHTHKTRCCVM
Method: as §2, §3

[9] = target: T5, recombinant PRL-3 (Homo sapiens, UniProt O75365); test: In vitro PTPase assay with recombinant PRL (peptide or DiFMUP substrate); format: biochemical; settings: for inhibition of PRL-3 compared with sodium stibogluconate: DiFMUP substrate, comparable conditions
T5 construct: made in house; host or cells: E. coli DH5α
T5 sequence (O75365 whole entry): as above
Method: as §1
(§4) Recombinant GST fusion proteins of human PRL-1, 2 and 3 phosphatases were purified with glutathione beads from DH5α bacteria transformed by pGEX vectors containing cDNA fragments encoding the human PRLs which were generated by RT-PCR from H9 cells and confirmed by sequence analysis. Activities of the purified recombinant PRL proteins in dephosphorylating DiFMUP in the absence or presence of various inhibitors were measured following established procedure.
(§5) To assess whether sodium stibogluconate is an inhibitor of oncogenic PRL phosphatases, its effects on the PTPase activity of recombinant PRLs were evaluated by in vitro PTPase assays.

[10] = target: T6, recombinant PRL-1 (Homo sapiens, UniProt Q93096); test: In vitro PTPase assay with recombinant PRL; format: biochemical; settings: peptide substrate
T6 construct: made in house; host or cells: E. coli DH5α
T6 sequence (Q93096 whole entry): as the sequence (Q93096 whole entry) above
Method: as §1, §4, §5

[11] = target: T7, recombinant PRL-2 (Homo sapiens, UniProt Q12974); test: In vitro PTPase assay with recombinant PRL; format: biochemical
T7 construct: made in house; host or cells: E. coli DH5α
T7 sequence (Q12974 1-167): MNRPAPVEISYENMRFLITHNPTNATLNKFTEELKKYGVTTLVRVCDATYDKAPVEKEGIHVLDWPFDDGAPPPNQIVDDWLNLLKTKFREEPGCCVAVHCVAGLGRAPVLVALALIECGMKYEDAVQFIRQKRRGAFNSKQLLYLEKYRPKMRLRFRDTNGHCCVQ
Method: as §1, §4, §5

[12] = target: T2, GST/SHP-1 fusion protein; test: Reversibility of SHP-1 inhibition (washing of bead-bound GST/SHP-1); format: biochemical; settings: preincubated with inhibitor, then washed
Description: The beads were then washed 3 times in Tris buffer or without washing prior to in vitro PTPase assays.

[13] = target: T8, intracellular PTP1B (Mus musculus, UniProt P35821); test: PTPase activity of anti-PTP1B immunocomplexes from NIH3T3 cells; format: cell-based; settings: treated 5 minutes
T8 construct: endogenous in cells; host or cells: NIH3T3
T8 sequence (P35821 whole entry): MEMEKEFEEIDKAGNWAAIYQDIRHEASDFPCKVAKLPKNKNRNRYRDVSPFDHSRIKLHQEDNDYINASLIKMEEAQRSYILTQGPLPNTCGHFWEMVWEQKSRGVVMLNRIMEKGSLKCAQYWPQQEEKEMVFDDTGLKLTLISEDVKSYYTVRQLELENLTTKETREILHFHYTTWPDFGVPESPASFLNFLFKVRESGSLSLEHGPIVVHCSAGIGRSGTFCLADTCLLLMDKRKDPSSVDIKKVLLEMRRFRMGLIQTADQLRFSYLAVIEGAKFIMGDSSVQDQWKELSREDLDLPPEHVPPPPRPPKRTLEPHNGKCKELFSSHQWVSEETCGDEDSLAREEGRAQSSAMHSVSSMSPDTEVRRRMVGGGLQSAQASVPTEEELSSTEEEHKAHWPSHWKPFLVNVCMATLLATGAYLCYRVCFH
Method: NIH3T3 cells were untreated or treated with glucatime for 5 minutes. PTP1B protein was immunoprecipitated from the cells using an anti-PTP1B antibody. The amounts of PTP1B in the immunocomplexes were quantified by SDS-PAGE/Western blotting with the anti-PTP1B antibody (A). Activities of the immunocomplexes in dephosphorylating a synthetic phosphotyrosine peptide were determined by in vitro PTPase assays (B).

[14] = tested on: human cancer cell lines (A549, DR, HEY, MDA231, SK-N-SH, WM9); test: Growth of human cancer cell lines with glucatime and/or IFNα (MTT, 6 days); format: cell-based
Method: Growth of human cancer cell lines cultured in the absence or presence of glucatime and/or IFNα (500 U/ml) for 6 days were determined by MTT assays. These cell lines were of different human malignancies, including lung cancer (A549), lymphoma (DR), ovarian cancer (HEY), breast cancer (MDA231, or MDA), neuroblastoma (SK-N-SH, or SK) and melanoma (WM9).

[15] = target: T9, intracellular Flag-PRL-2 (Homo sapiens, UniProt Q12974); test: PTPase activity of anti-Flag immunocomplexes from NIH3T3 transfectants; format: cell-based
T9 construct: expressed in transfected cells; host or cells: NIH3T3
T9 sequence (Q12974 1-167): T7 sequence (Q12974 1-167)
Method: as §2
Flag-PRL-2 transfectants were briefly treated with sodium stibogluconate for 5 minutes, washed to remove cell-free drug and then incubated for various times prior to termination by cell lysis. Anti-Flag immunocomplexes from the cells were analyzed by SDS-PAGE/Western blotting and PTPase assays. The amounts of Flag-PRL-2 proteins in the immunocomplexes were at similar levels as quantified by probing with an anti-Flag antibody. […] PTPase activity of the immunocomplexes from cells incubated for 24 hours was 78% of the untreated cells.
Glucatime-induced inactivation of intracellular PRL-2 lasts more than 24 hours. NIH3T3 stable transfectant of Flag-tagged PRL-2 was treated with glucatime for 5 minutes, washed to remove cell free drug and then incubated for various times prior to termination by lysing the cells in lysis buffer. Flag-tagged PRL-2 was immunoprecipitated from the cell lysates using a monoclonal anti-Flag antibody. The amounts of Flag-tagged PRL-2 in the immunocomplexes were quantified by SDS-PAGE/Western blotting with the anti-Flag antibody (A). Activities of the immunocomplexes in dephosphorylating a synthetic phosphotyrosine peptide were determined by in vitro PTPase assays (B).

[16] = tested on: PTPases; test: PTPase inhibition in vitro by ketoconazole; format: biochemical

CC1=C(/C=C/C(C)=C/C=C/C(C)=C/C(=O)O)C(C)(C)CCC1 [ATRA, all-trans-retinoic acid]
long term APL-free survival [1]: exceeding 75% | cell cycle arrest (DNA content analysis) [2]: arrested at G1 phase

O.O.O.O=C([O-])[C@H]([O-])[C@@H]([O-])C(=O)[O-].O=C([O-])[C@H]([O-])[C@@H]([O-])C(=O)[O-].[K+].[K+].[Sb+3].[Sb+3] [PSbT, potassium antimonyl tartrate]
inhibition of PTP1B ([3]; at 11,000 μg/ml): no detectable inhibition | IL-3-induced Stat5 phosphorylation [4]: failed to enhance | inhibition of SHP-1 ([5]; at 11,000 μg/ml): no detectable inhibition | IL-3-induced proliferation of Baf3 cells [6]: failed to enhance | toxicity against Baf3 cells [6]: marked toxicity

CNC[C@H](O)[C@@H](O)[C@H](O)[C@H](O)CO.[O]=[Sb]([OH])([OH])[OH] [glucatime, meglumine antimonate]
PTPase activity of Flag-PRL-1 immunocomplexes from treated transfectants [7]: inactivates | PTPase activity of Flag-PRL-3 immunocomplexes from treated transfectants [8]: inactivates | effect against recombinant PTP1B in vitro [3]: partial inhibitory effect | inhibition of recombinant PRL-3 ([9]; peptide substrate): potent inhibitor | inhibition of recombinant PRL-1 [10]: potent inhibitor | inhibition of recombinant PRL-2 ([11]; peptide substrate): potent inhibitor | reversibility of PRL-2 inactivation ([11]; washing process / stable complex): irreversible | reversibility of SHP-1 inhibition [12]: irreversible | inhibition of intracellular PTP1B [13]: partial inhibition | IFNα-induced growth inhibition in presence of glucatime ([14]; IFNα 500 U/ml): augments | growth of human cancer cell lines in culture ([14]; MTT): inhibits the growth | PTPase activity of Flag-PRL-2 immunocomplexes from treated transfectants ([15]; treated 5 min): inactivates | duration of intracellular PRL-2 inactivation ([15]; treated 5 minutes, washed to remove cell free drug): more than 24 hours

CC(=O)N1CCN(c2ccc(OCC3COC(Cn4ccnc4)(c4ccc(Cl)cc4Cl)O3)cc2)CC1 (stereo not shown) [ketoconazole]
PTPase inhibition in vitro [16]: inhibits different PTPases

[Na+].[Na+].[Na+].[O]=[V]([O-])([O-])[O-] [sodium orthovanadate]
inhibition of PRL-3 compared with sodium stibogluconate [9]: less effective

Cc1ccc(C(=O)Nc2ccc(S(=O)(=O)O)c3cc(S(=O)(=O)O)cc(S(=O)(=O)O)c23)cc1NC(=O)c1cccc(NC(=O)Nc2cccc(C(=O)Nc3cc(C(=O)Nc4ccc(S(=O)(=O)O)c5cc(S(=O)(=O)O)cc(S(=O)(=O)O)c45)ccc3C)c2)c1 [suramin]
inhibition of PRL-3 compared with sodium stibogluconate [9]: less effective | inhibition of SHP-1 compared with sodium stibogluconate ([5]; under comparable conditions): less effective | reversibility of SHP-1 inhibition [12]: reversible
